Results taken from patent US20060029628A1, “Use of a volatile cooling sensate on fibrous tissues to provide a sensation of rhinological decongestion” (priority 2004, published 2006).

Assay: Vapour pressure of the pure substance
Type: physicochemical
Conditions: about 20° C.
Description: “Volatility” according to the present invention is considered to be present for substances having a liquid or sublimation vapour pressure of the pure substance at 20° C. of at least about 0.013 Pascal (0.0001 mmHg), or at least about 0.1 Pascal. Vapour pressure can be measured according to ASTM Standard E1194-01 of November 2001. In certain embodiments according to the present invention, an upper limit for the vapour pressure of pure material should be less than about 67 Pascal (0.5 mmHg), or less than about 13 Pascal (0.1 mmHg) each at 20° C. Evaluation of whether a composition does vaporize sufficiently can be made by a panel of at least five people or by vapour head evaluation, e.g. with gas chromatography.

In the case of `CNC(=O)C(C)(C(C)C)C(C)C` [WS-23, 2-Isopropyl-N,2,3-trimethylbutyramide], the vapour pressure is reported as “about 0.53 Pascal” and the vapour pressure (equivalent of the Pascal value) is reported as 0.004 mmHg.
